Experimental findings from ChEMBL document CHEMBL3085740, “Aziridines from alkenyl-β-D-galactopyranoside derivatives: Stereoselective synthesis and in vitro selective anticancer activity” (Eur J Med Chem, 2013) are described below.

Usually IC50 stands for the point on the concentration scale where inhibition reaches its midpoint. Low readings indicate inhibition by little substance, high ones a need for much substance.

One data set relates to MRC5. Nature of the data set: Cytotoxicity against human MRC5 cells after 48 hrs by MTT assay. In kind it is cell-based. To be noted: MRC5, 48 h. (Formazan colour is commonly taken as a measure of viable cells.)
The test system of data set [1] is A549. Nature of the data set: Cytotoxicity against human A549 cells after 48 hrs by MTT assay. It is filed as functional, cell-based. To be noted: A549, 48 h.
Data set [2] is described as follows: Cytotoxicity against human MRC5 cells assessed as cell survival at 10 to 320 uM after 48 hrs by MTT assay. In kind it is cell-based. To be noted: read-out: Survival.
Data set [3] concerns A549. The data set can be described thus: Cytotoxicity against human A549 cells at 300 uM after 48 hrs by MTT assay. In kind it is functional.
The subject of the next data set is MCF10. Nature of the data set: Cytotoxicity against human MCF10 cells after 48 hrs by MTT assay. In kind it is cell-based. The conditions noted are these: MCF10, 48 h.
For data set [4], the system named is UACC-62. Nature of the data set: Cytotoxicity against human UACC62 cells after 48 hrs by MTT assay. It is filed as functional, cell-based. To be noted: UACC-62, 48 h.
Data set [5] is described as follows: Cytotoxicity against human MCF10 cells assessed as cell survival at 264 uM after 48 hrs by MTT assay. It is filed as cell-based. To be noted: read-out: Survival.
Data set [6] relates to UACC-62. Nature of the data set: Cytotoxicity against human UACC62 cells assessed as cell viability at 1 mM after 48 hrs by MTT assay. The conditions noted are these: UACC-62, 48 h, read-out: Activity. In kind it is functional.
The subject of a further data set is MCF7. Nature of the data set: Cytotoxicity against human MCF7 cells after 48 hrs by MTT assay. In kind it is functional, cell-based. The conditions noted are these: MCF7, 48 h.
Data set [7] is described as follows: Cytotoxicity against human VH10 cells at 1 mM after 48 hrs by MTT assay. In kind it is cell-based. To be noted: vh10, 48 h, 1000 µM.
Data set [8] can be described thus: Cytotoxicity against human VH10 cells after 48 hrs by MTT assay. In kind it is cell-based. The conditions noted are these: VH10, 48 h.

Structures are written as SMILES.

As for `Cc1ccc(S(=O)(=O)N2C(C)C2CO[C@@H]2O[C@@H]3CO[C@H](c4ccccc4)O[C@@H]3[C@H](O)[C@H]2O)cc1` (stereo partly drawn), the IC50 with MRC5 was found to be 544 µM; with A549 [1], 351 µM.

As for `CCCCCCCCCCCCCCC(CO[C@@H]1O[C@@H]2CO[C@H](c3ccccc3)O[C@@H]2[C@H](OCc2ccccc2)[C@H]1OCc1ccccc1)(CN1CCN(CCO)CC1)NS(=O)(=O)c1ccc(C)cc1` (stereo partly drawn), the results for the IC50 in the data set with MRC5 and in the data set with A549 [1] were 2 µM and 15 µM, respectively.

Take `CCCCCCCCCCCCNCC(C)(CO[C@@H]1O[C@@H]2CO[C@H](c3ccccc3)O[C@@H]2[C@H](OCc2ccccc2)[C@H]1OCc1ccccc1)NS(=O)(=O)c1ccc(C)cc1` (stereo partly drawn): the IC50 is 156 µM in the data set with MRC5 and 492 µM in the data set with A549 [1].

Take `CCCCCCCCCCCCCCC1(CO[C@@H]2O[C@@H]3CO[C@H](c4ccccc4)O[C@@H]3[C@H](OCc3ccccc3)[C@H]2OCc2ccccc2)CN1S(=O)(=O)c1ccc(C)cc1` (stereo partly drawn): the IC50 with MRC5 and in the data set with A549 [1] was 1000 µM each time.

For `CCCCCCCCCC1(CO[C@@H]2O[C@@H]3CO[C@H](c4ccccc4)O[C@@H]3[C@H](OCc3ccccc3)[C@H]2OCc2ccccc2)CN1S(=O)(=O)c1ccc(C)cc1` (stereo partly drawn), the viability at 48 h, up to 320 µM in data set [2] worked out at 90%. In addition, the IC50 came out at 575 µM in the data set on MRC5 and 154 µM in the data set with A549 [1]. This compound showed an Activity with A549 [3] of 30%.

On to `CCCC1(CO[C@@H]2O[C@@H]3CO[C@H](c4ccccc4)O[C@@H]3[C@H](OCc3ccccc3)[C@H]2OCc2ccccc2)CN1S(=O)(=O)c1ccc(C)cc1` (stereo partly drawn), for which the IC50 in the data set with MRC5 worked out at 793 µM; in the data set on A549 [1] it was 579 µM.

For the compound `Cc1ccc(S(=O)(=O)N2CC2(CO[C@@H]2O[C@@H]3CO[C@H](c4ccccc4)O[C@@H]3[C@H](OCc3ccccc3)[C@H]2OCc2ccccc2)c2ccccc2)cc1` (stereo partly drawn), the IC50 in the data set with MRC5 came out at 570 µM; in the data set with A549 [1], 599 µM.

As for `Cc1ccc(S(=O)(=O)N2C(C)C2CO[C@@H]2O[C@@H]3CO[C@H](c4ccccc4)O[C@@H]3[C@H](OCc3ccccc3)[C@H]2OCc2ccccc2)cc1` (stereo partly drawn), the IC50 in the data set with MRC5 is over 1000 µM; in the data set with A549 [1] it was 804 µM.

`CCCCCCCC1C(CO[C@@H]2O[C@@H]3CO[C@H](c4ccccc4)O[C@@H]3[C@H](OCc3ccccc3)[C@H]2O)N1S(=O)(=O)c1ccc(C)cc1` (stereo partly drawn): in [2], the viability at 48 h, up to 320 µM was 90%. In addition, the IC50 is over 1000 µM in the data set with MRC5 and 235 µM in the data set on A549 [1].

As to `Cc1ccc(S(=O)(=O)N2C(CO[C@@H]3O[C@@H]4CO[C@H](c5ccccc5)O[C@@H]4[C@H](OCc4ccccc4)[C@H]3OCc3ccccc3)C2(C)C)cc1` (stereo partly drawn), the IC50 in the data set with MRC5 and with A549 [1] was over 1000 µM throughout.

Take `Cc1ccc(S(=O)(=O)N2CC2(C)CO[C@@H]2O[C@@H]3CO[C@H](c4ccccc4)O[C@@H]3[C@H](O)[C@H]2O)cc1` (stereo partly drawn): the IC50 came out at 312 µM in the data set with MRC5 and 154 µM with A549 [1].

Turning to `Cc1ccc(S(=O)(=O)N2C(CO[C@@H]3O[C@@H]4CO[C@H](c5ccccc5)O[C@@H]4[C@H](O)[C@H]3O)C2(C)C)cc1` (stereo partly drawn), the concentration for half-maximal inhibition (IC50) with MRC5 turned out to be 567 µM; in the data set on A549 [1] it was 389 µM.

`Cc1ccc(S(=O)(=O)N2CC2CO[C@@H]2O[C@@H]3CO[C@H](c4ccccc4)O[C@@H]3[C@H](OCc3ccccc3)[C@H]2OCc2ccccc2)cc1` (stereo partly drawn): the viability at 48 h, up to 320 µM in [2] came out at 90%. In addition, the half-maximal inhibitory concentration (IC50) in the data set on MRC5 was 183 µM; with A549 [1], 73 µM.

For the compound `Cc1ccc(S(=O)(=O)N2CC2(C)CO[C@@H]2O[C@@H]3CO[C@H](c4ccccc4)O[C@@H]3[C@H](OCc3ccccc3)[C@H]2OCc2ccccc2)cc1` (stereo partly drawn), the IC50 in the data set with MCF10 is 567 µM; in the data set on UACC-62 [4] it was 196 µM; in the data set on MRC5, over 1000 µM; in the data set on MCF7, 12 µM; with A549 [1], 153 µM; in [8] it was over 1000 µM. Further, in [5], the viability at 48 h, 264 µM was found to be 80%. The viability at 1000 µM in the data set with UACC-62 [6] came to 10%. In data set [2], the viability at 48 h, up to 320 µM is 90%. The values for the Activity (in the data set on A549 [3]; in [7]) were 30% and “Non-toxic”, respectively.

On to `O=c1[nH]cc(F)c(=O)[nH]1` [FLUOROURACIL], for which the IC50 in the data set with UACC-62 [4] was 264 µM; in data set [8], over 1000 µM.
